{"source": "paper PMC11731258", "about": "“The structural basis for high-affinity c-di-GMP binding to the GSPII-B domain of the traffic ATPase PilF from Thermus thermophilus” (The Journal of Biological Chemistry, 2024)", "key": {"[1]": {"biological_target": "T1, PilF159-482 (Thermus thermophilus, UniProt Q5SLC9)", "T1 sequence (Q5SLC9 159-482)": "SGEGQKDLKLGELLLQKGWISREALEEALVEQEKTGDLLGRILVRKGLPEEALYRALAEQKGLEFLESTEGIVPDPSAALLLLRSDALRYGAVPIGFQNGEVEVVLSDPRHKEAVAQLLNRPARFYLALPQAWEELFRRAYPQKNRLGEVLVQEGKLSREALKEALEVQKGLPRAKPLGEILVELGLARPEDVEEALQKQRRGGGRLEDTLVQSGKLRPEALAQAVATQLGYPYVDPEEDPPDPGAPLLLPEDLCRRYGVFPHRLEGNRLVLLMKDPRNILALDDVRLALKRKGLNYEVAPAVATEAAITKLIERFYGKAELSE", "assay": "ITC binding to PilF159-482", "conditions": "20 °C; for Kd: pH 7.5, two-site model", "protocol": "(§1) To assess the ligand-binding capabilities of the various PilF constructs, triplicates of ITC measurements were recorded for each construct. The measurements were carried out using a MicroCal ITC200 (Malvern Panalytical). All ITC experiments were conducted at 20 °C with 50 mM Tris-HCl pH 7.5, 200 mM sodium chloride, 1 mM β-mercaptoethanol as the sample buffer. All protein samples were extensively dialyzed against the sample buffer and the buffer used for dialysis was used to dilute protein and c-di-GMP samples in preparation for the ITC measurements. Each measurement was conducted using the following protocol. In total, 39.8 μl c-di-GMP were titrated to 270 μl protein in 20 separate injections in 180 s intervals with a stirring speed of 750 rpm. After an initial delay of 120 s, the first injection of 0.2 μl c-di-GMP with a duration of 0.4 s was followed by 19 injections of 2 μl with a duration of 4 s. During the measurement, the feedback mode was set to high and the reference power to 11 μcal s^−1. To optimize precision of the measurements, protein and c-di-GMP concentrations were adjusted to the binding capabilities of the respective constructs and ranged from 5 to 200 μM for protein and 50 to 2000 μM for c-di-GMP. All thermograms were processed using Origin 7.0 (OriginLab) using a one-site– or two-site–binding model dependent on the number of expected binding events."}, "[2]": {"biological_target": "T2, PilF1-302 (GSPII-A and GSPII-B) (Thermus thermophilus, UniProt Q5SLC9)", "T2 sequence (Q5SLC9 1-302)": "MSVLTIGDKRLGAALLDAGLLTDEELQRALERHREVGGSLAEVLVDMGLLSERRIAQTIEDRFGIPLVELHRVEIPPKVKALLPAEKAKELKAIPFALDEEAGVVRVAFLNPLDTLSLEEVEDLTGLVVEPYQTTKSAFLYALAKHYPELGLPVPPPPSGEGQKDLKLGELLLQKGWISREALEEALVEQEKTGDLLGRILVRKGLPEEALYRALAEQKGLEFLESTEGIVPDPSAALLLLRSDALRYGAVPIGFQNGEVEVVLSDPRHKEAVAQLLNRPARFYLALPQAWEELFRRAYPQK", "assay": "ITC binding to PilF1-302", "conditions": "20 °C", "protocol": "as §1"}, "[3]": {"biological_target": "T3, PilF159-302 K167L (Thermus thermophilus, UniProt Q5SLC9, K167L)", "T3 sequence (Q5SLC9 159-302 K167L)": "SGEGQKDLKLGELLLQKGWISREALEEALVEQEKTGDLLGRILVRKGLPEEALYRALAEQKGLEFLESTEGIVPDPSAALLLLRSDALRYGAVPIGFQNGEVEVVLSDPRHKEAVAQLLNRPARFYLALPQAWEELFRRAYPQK", "assay": "ITC binding to PilF159-302 K167L", "conditions": "20 °C", "protocol": "as §1"}, "[4]": {"biological_target": "T4, PilF159-221 (lacking the C-terminal subdomain) (Thermus thermophilus, UniProt Q5SLC9)", "T4 sequence (Q5SLC9 159-221)": "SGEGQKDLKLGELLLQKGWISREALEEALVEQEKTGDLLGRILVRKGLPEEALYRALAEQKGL", "assay": "ITC binding to PilF159-221", "protocol": "as §1"}, "[5]": {"biological_target": "T5, PilF159-302 D266A (Thermus thermophilus, UniProt Q5SLC9, D266A)", "T5 sequence (Q5SLC9 159-302 D266A)": "T3 sequence (Q5SLC9 159-302 K167L)", "assay": "ITC binding to PilF159-302 D266A", "conditions": "20 °C", "protocol": "as §1"}, "[6]": {"biological_target": "T6, PilF159-302 Q218E (Thermus thermophilus, UniProt Q5SLC9, Q218E)", "T6 sequence (Q5SLC9 159-302 Q218E)": "T3 sequence (Q5SLC9 159-302 K167L)", "assay": "ITC binding to PilF159-302 Q218E", "conditions": "20 °C", "protocol": "as §1"}, "[7]": {"biological_target": "T7, PilF159-302 L196R (Thermus thermophilus, UniProt Q5SLC9, L196R)", "T7 sequence (Q5SLC9 159-302 L196R)": "T3 sequence (Q5SLC9 159-302 K167L)", "assay": "ITC binding to PilF159-302 L196R", "conditions": "20 °C", "protocol": "as §1"}, "[8]": {"biological_target": "T8, PilF159-302 L166G (Thermus thermophilus, UniProt Q5SLC9, L166G)", "T8 sequence (Q5SLC9 159-302 L166G)": "T3 sequence (Q5SLC9 159-302 K167L)", "assay": "ITC binding to PilF159-302 L166G", "conditions": "20 °C", "protocol": "as §1"}, "[9]": {"tested_on": "PilF GSPII-A domain", "assay": "ITC comparison of domain truncation constructs", "assay_type": "binding, Thermus thermophilus", "conditions": "inferred from ITC of PilF1-302 vs PilF159-302 and PilF1-482", "protocol": "as §1"}, "[10]": {"biological_target": "MshEN (N-terminal domain of ATPase MshE)", "parameters": "method as in PMID 27578558", "conditions": "full length MshEN; cited from earlier work"}, "[11]": {"biological_target": "MshEN lacking the entire C-terminal subdomain", "parameters": "method as in PMID 27578558", "conditions": "entire C-terminal subdomain deleted; read-out: KD (ligand affinity); cited from earlier work"}}, "note": "Values joined by “and” are separate entries in the source; they are usually repeats but may differ in a detail not shown here. Equal values may be shown once. Read-outs that look alike come from different tables or passages of the source."}
{"compound": "Nc1nc2c(ncn2[C@@H]2O[C@@H]3COP(=O)(O)O[C@H]4[C@@H](O)[C@H](n5cnc6c(=O)[nH]c(N)nc65)O[C@@H]4COP(=O)(O)O[C@H]3[C@H]2O)c(=O)[nH]1", "note": "[c-di-GMP, cyclic dimeric guanosine monophosphate]", "values": [{"measurement": "N, site 1", "setting": "[1]; Table S1 site 1", "value": "1 ± 0.1"}, {"measurement": "ΔH, site 1", "setting": "[1]; Table S1 site 1", "value": "-8.689 ± 0.959", "unit": "kcal/mol"}, {"measurement": "ΔS, site 1", "setting": "[1]; Table S1 site 1", "value": "0.95 ± 3.5", "unit": "cal/mol/deg"}, {"measurement": "N, site 2", "setting": "[1]; Table S1 site 2", "value": "0.7 ± 0.1"}, {"measurement": "ΔH, site 2", "setting": "[1]; Table S1 site 2", "value": "-11.766 ± 1.182", "unit": "kcal/mol"}, {"measurement": "ΔS, site 2", "setting": "[1]; Table S1 site 2", "value": "2.1 ± 4.7", "unit": "cal/mol/deg"}, {"measurement": "Kd", "setting": "[1]; read-out: KD, site 1 (low affinity)", "value": "208 ± 27", "unit": "nM"}, {"measurement": "Kd", "setting": "[1]; read-out: KD, site 2 (high affinity)", "value": "1 ± 0.3", "unit": "nM"}, {"measurement": "N", "setting": "[2]", "value": "0.94 ± 0.13"}, {"measurement": "ΔH", "setting": "[2]", "value": "-14.263 ± 2.001", "unit": "kcal/mol"}, {"measurement": "ΔS", "setting": "[2]", "value": "-11.4 ± 6.4", "unit": "cal/mol/deg"}, {"measurement": "Kd", "setting": "[2]; pH 7.5", "value": "7 ± 2", "unit": "nM"}, {"measurement": "N", "setting": "[3]", "value": "0.76 ± 0.10"}, {"measurement": "ΔH", "setting": "[3]", "value": "-10.241 ± 0.494", "unit": "kcal/mol"}, {"measurement": "ΔS", "setting": "[3]", "value": "5.4 ± 1.4", "unit": "cal/mol/deg"}, {"measurement": "Kd", "setting": "[3]; pH 7.5", "value": "2 ± 0.3", "unit": "nM"}, {"measurement": "N", "setting": "[4]; ITC, 20 °C", "value": "1.17 ± 0.02"}, {"measurement": "ΔH", "setting": "[4]; ITC, 20 °C", "value": "-11.453 ± 0.189", "unit": "kcal/mol"}, {"measurement": "ΔS", "setting": "[4]; ITC, 20 °C", "value": "-5.8 ± 0.6", "unit": "cal/mol/deg"}, {"measurement": "Kd", "setting": "[4]; ITC, 20 °C, pH 7.5", "value": "54 ± 3", "unit": "nM"}, {"measurement": "fold higher KD than PilF159-302", "setting": "[4]; PilF159-302 6 nM", "value": 9, "unit": "fold"}, {"measurement": "N", "setting": "[5]", "value": "0.95 ± 0.05"}, {"measurement": "ΔH", "setting": "[5]", "value": "-9.995 ± 0.161", "unit": "kcal/mol"}, {"measurement": "ΔS", "setting": "[5]", "value": "0.6 ± 0.4", "unit": "cal/mol/deg"}, {"measurement": "Kd", "setting": "[5]; pH 7.5", "value": "27 ± 2", "unit": "nM"}, {"measurement": "N", "setting": "[6]", "value": "1.26 ± 0.06"}, {"measurement": "ΔH", "setting": "[6]", "value": "-5.312 ± 0.34", "unit": "kcal/mol"}, {"measurement": "ΔS", "setting": "[6]", "value": "10.9 ± 1.0", "unit": "cal/mol/deg"}, {"measurement": "Kd", "setting": "[6]; pH 7.5", "value": "460 ± 28", "unit": "nM"}, {"measurement": "N", "setting": "[7]", "value": "1.23 ± 0.03"}, {"measurement": "ΔH", "setting": "[7]", "value": "-8.148 ± 0.209", "unit": "kcal/mol"}, {"measurement": "ΔS", "setting": "[7]", "value": "7.1 ± 0.8", "unit": "cal/mol/deg"}, {"measurement": "Kd", "setting": "[7]; pH 7.5", "value": "23 ± 2", "unit": "nM"}, {"measurement": "N", "setting": "[8]", "value": "0.92 ± 0.10"}, {"measurement": "ΔH", "setting": "[8]", "value": "-10.283 ± 0.189", "unit": "kcal/mol"}, {"measurement": "ΔS", "setting": "[8]", "value": "1.2 ± 3.4", "unit": "cal/mol/deg"}, {"measurement": "Kd", "setting": "[8]; pH 7.5", "value": 3, "unit": "nM"}, {"measurement": "ability to bind c-di-GMP", "setting": "[9]", "value": "lacking the ability to bind c-di-GMP"}, {"measurement": "Kd", "setting": "[10]", "value": "~500 nM and 500 nM"}, {"measurement": "Kd", "setting": "[11]", "value": 350, "unit": "nM"}]}
